Usually ED50 stands for the dose at which the effect has come halfway, by size or by number of responders.

Like-named read-outs stand apart in the source and are kept apart here.

Assay [1] concerns acetylcholine-induced abdominal constriction. Put plainly: animal or person. The format is in vivo, mice. The following applies: Mus musculus; for ED50: read-out: Ach ED50.
In another assay the test system is rat paw flexion. The assay can be described thus: rat paw flexion test (P.F.). The following applies: for inhibition in vivo at 30 mg/kg: 30 mg./kg. oral; for inhibition in vivo at 100 mg/kg: 100 mg./kg. oral; for ED50: oral. The format is in vivo. The text has this:
(§1) The test procedures used to determine the analgesic activities of the compounds have been described in detail in the prior art and are as follows: The acetylcholine-induced abdominal constriction test, which is a primary analgesic screening test designed to measure the ability of a test agent to suppress acetylcholine-induced abdominal constriction in mice, described by Collier et al., Brit. J. Pharmacol. Chemotherap. 32, 295 (1968); a modification of the anti-bradykinin test, which is also a primary analgesic screening procedure, described by Berkowitz et al., J. Pharmacol. Exptl. Therap. 177, 500-508 (1971), Blane et al., J. Pharm. Pharmacol. 19, 367-373 (1967), Botha et al., Eur. J. Pharmacol. 6, 312-321 (1969) and Deffenu et al., J. Pharm. Pharmacol. 18, 135 (1966); and the rat paw flexion test, described by Kuzuna et al., Chem. Pharm. Bull., 23, 1184-1191 (1975), Winter et al., J. Pharm. Exptl. Therap., 211, 678-685 (1979) and Capetola et al., J. Pharm. Exptl. Therap. 214, 16-23 (1980).
(§2) Unless noted otherwise, all data were obtained on oral administration and are expressed either as the ED50 or as the percent inhibition at a given dose level (thus 30/100 or 30% inhibition at […].)
(§3) In some instances, the compounds were retested two or more times, and ED50 values were calculated for each series of repeat tests. In such instances, each of the ED50 values so-obtained is given in a series of values, thus 6, 28, 30, 43 in the case of the species of Example 1AW in the acetylcholine-induced abdominal constriction test.

In a further assay the test system is bradykinin. The assay can be described thus: anti-bradykinin test (BRDK). The format is in vivo. Particulars: for inhibition in vivo at 200 mg/kg: 200 mg./kg. oral; for ED50: po.
Source text: as §1, §2, §3

Where [2] appears, read: po, read-out: P.F. percent inhibition.
Setting [3] is: read-out: BRDK percent inhibition.

On to `CCc1ccc(C(=O)c2c(C)n(CCN3CCOCC3)c3ccccc23)cc1` [Example 1AC], for which the inhibition in vivo at 1.77 mg/kg in assay [1] (iv, 1.77 mg./kg. i.v., read-out: Ach percent inhibition) stood at 10%. Further, in assay [1] (iv, 2.2 mg./kg. i.v., read-out: Ach percent inhibition), the inhibition in vivo at 2.2 mg/kg was 10%. Also, the inhibition in vivo at 3 mg/kg in assay [1] (iv, 3 mg./kg. i.v., read-out: Ach percent inhibition) was determined as 80%. In addition, the inhibition in vivo at 10 mg/kg in assay [1] (iv, 10 mg./kg. i.v., read-out: Ach percent inhibition) amounted to 100%. Also, the ED50 in assay [1] (po) stood at 30 mg/kg. Further, in the assay with rat paw flexion (setting [2]), the inhibition in vivo at 30 mg/kg came to 43% and the inhibition in vivo at 100 mg/kg amounted to 75%. Also, the inhibition in vivo at 50 mg/kg in the assay on rat paw flexion (po, 50 mg./kg. oral, read-out: P.F. percent inhibition) was found to be 57%. The inhibition in vivo at 200 mg/kg with bradykinin (setting [3]) was 0%.

For the compound `Cc1ccc(C(=O)c2c(C)n(CCN3CCOCC3)c3ccccc23)cc1` [Example 1AE], the ED50 stood at 29 mg/kg in assay [1] (po) and 66.2 mg/kg with rat paw flexion. The inhibition in vivo at 300 mg/kg in the assay on bradykinin (300 mg./kg. oral, read-out: BRDK percent inhibition) amounted to 20%.

In the case of `Cc1c(C(=O)c2ccccc2)c2ccccc2n1CCN1CCOCC1` [Example 1AO], the values for the ED50 (in assay [1] (po); in the assay with bradykinin) were 28 mg/kg and 111 mg/kg, respectively. The inhibition in vivo at 100 mg/kg in the assay with rat paw flexion (setting [2]) was found to be 75%.

In the case of `CC(CN1CCOCC1)n1cc(C(=O)c2ccccc2)c2ccccc21` (stereo not drawn) [Example 1AY], in assay [1] (iv), the ED50 came out at 8.5 mg/kg. Further, in the assay with rat paw flexion (setting [2]), the inhibition in vivo at 30 mg/kg is 0% and the inhibition in vivo at 100 mg/kg came out at 0%. Further, in the assay on rat paw flexion (po, 300 mg./kg. oral, read-out: P.F. percent inhibition), the inhibition in vivo at 300 mg/kg turned out to be 20%. Moreover, the ED50 in the assay with bradykinin came out at 141 mg/kg.

Regarding `CSc1ccc(C(=O)c2c(C)n(CCN3CCOCC3)c3ccccc23)cc1` [Example 1D], the results for the ED50 (in assay [1] (iv); in assay [1] (sc); with rat paw flexion) were 5.1 mg/kg, 49 mg/kg and 64 mg/kg, respectively. The inhibition in vivo at 100 mg/kg in the assay on bradykinin (100 mg./kg. oral, read-out: BRDK percent inhibition) stood at 0%.

Consider `Cc1c(C(=O)c2ccc([S+](C)[O-])cc2)c2ccccc2n1CCN1CCOCC1` (stereo not drawn) [Example 1F], for which the ED50 was determined as 13 mg/kg in assay [1] (iv) and 20 mg/kg in assay [1] (po). For the same compound, the inhibition in vivo at 100 mg/kg with rat paw flexion (setting [2]) was 88%. For the same compound, the inhibition in vivo at 200 mg/kg in the assay with bradykinin (setting [3]) was 0%.

Consider `COc1ccc(C(=O)c2c(C)n(C(C)CN3CCOCC3)c3ccccc23)cc1` (stereo not drawn) [Example 2I], for which the ED50 in assay [1] (iv) was 2.6 mg/kg; in assay [1] (po), 28 mg/kg; in assay [1] (sc), 18 mg/kg; with bradykinin, 132 mg/kg. Further, the inhibition in vivo at 100 mg/kg with rat paw flexion (setting [2]) came to 62%.

On to `Cc1c(C(=O)c2ccc(N)cc2)c2ccccc2n1CCN1CCOCC1` [Example 4B, 2-methyl-3-(4-aminobenzoyl)-1-[2-(4-morpholinyl)ethyl]-1H-indole], for which the ED50 amounted to 6 mg/kg in assay [1] (iv), 24 mg/kg in assay [1] (po), 27.6 mg/kg with rat paw flexion and 38 mg/kg in the assay on bradykinin.

As for `CC(=O)Nc1cccc(C(=O)c2c(C)n(CCN3CCOCC3)c3ccccc23)c1` [Example 5B], in assay [1] (po), the ED50 stood at 25 mg/kg. Also, the inhibition in vivo at 10 mg/kg in the assay with rat paw flexion (po, 10 mg./kg. oral, read-out: P.F. percent inhibition) was found to be 0%. Besides, in the assay on rat paw flexion (setting [2]), the inhibition in vivo at 30 mg/kg was 12% and the inhibition in vivo at 100 mg/kg was 12%. This compound showed an ED50 in the assay with bradykinin of 61 mg/kg.

Source of the values: patent publication US4581354A, “3-arylcarbonyl- and 3-cycloalkylcarbonyl-1-aminoalkyl-1H-indoles, compositions and use” (Sterling Drug Inc., priority 1985, dated 1986).
